We go through two compounds from publication PMC8202924, “Emodepside targets SLO-1 channels of Onchocerca ochengi and induces broad anthelmintic effects in a bovine model of onchocerciasis” (PLoS Pathogens, 2021).

A short description of data set [1]: Dose identification (tolerability, blood glucose) after single IV infusion in Holstein cattle. It counts as in vivo, Holstein cattle (Bos taurus). An excerpt:
To ensure that doses of emodepside would be well tolerated in cattle in Cameroon, and that any adverse effects would be manageable in the field, dose identification was first performed in two female Holstein cattle (Bos taurus) 13–15 months old in Germany. Animals were from Rinder Union West, 48147 Münster, Germany, and were kept in a pen in an outdoor climate housing system of approximately 8 × 10 m in size in Hanscheider Hof, 51399 Burscheid, Germany. Pens were equipped with a self-locking feeding fence, deep-straw bedding and an automatic cup drinker system. Animals were offered fresh corn- and grass-silage once daily ad libitum, drinking water from the onsite well and mineral licks ad libitum. Straw bedding was refreshed at least weekly. Tolerability and pharmacokinetics (PK) of emodepside were assessed after a single intravenous (IV) injection: emodepside (4.0% m/m in solketal) was administered by constant infusion via the external jugular vein using disposable sterile IV catheters (Vasofix Braunüle 14G, 2,2 × 50 mm, Braun, Germany), sterile syringes (Perfusor-Syringe 50 mL, Braun, Germany), tubing systems (Braun Original-Perfusor-tubing, 150 cm, Luer Lock), and a perfusion system (Braun Perfusor Space). Animal 1 received emodepside 2.17 mg/kg; animal 2 received emodepside 1 mg/kg. Safety and tolerability were assessed during and after each administration. […] To determine the PK profile of emodepside and any possible influence of the drug on blood glucose concentrations, blood samples were drawn before dosing and at 4 min, 8 min, 15 min, 30 min, 1 h, 2 h, 3 h, 4 h, 6 h, 8 h, 24 h, 32 h, 48 h, 72 h, 96 h and 168 h after administration. Samples for glucose determination were taken before dosing and at 15 min, 30 min, 1 h, 2 h, 3 h, 4 h, 6 h and 8 h after dosing, centrifuged at 10°C (3,220 × g) for 10 min and stored under cool conditions (<8°C).

The nature of data set [2]: Skin concentration of emodepside in the main trial, LC-MS/MS. It counts as in vivo, zebu (Ngaoundéré Gudali) cattle (B. t. indicus). How it is done: Bovine samples (EDTA-plasma, skin snips and nodules) were stored at –80°C in Cameroon and shipped according to international transportation guidelines on dry ice to Bayer, Germany. Due to suspected contamination with other pathogens, samples required decontamination. Based on modified WHO guidelines for viral inactivation and reports of virus stability in fluids and solid media issued by the United States Army, decontamination of samples was performed. Samples were thawed slowly in a microbiological safety cabinet and the plasma samples were vortexed gently. Skin snips and nodules were homogenized in a Qiagen TissueLyser II (Qiagen NV, Hilden, the Netherlands) with stainless steel beads. Homogenates were weighed and mixed with 4.5 volumes of a 0.5% collagenase solution (collagenase from Clostridium histolyticum [>125 IU/mg] Merck KGaA, Darmstadt, Germany), then incubated at 37°C with orbital mixing at 140 rpm for 48 h.
Plasma samples, skin and nodule homogenates were precipitated in a 1:10 ratio with acetonitrile using a vortex mixer at 150 rpm for 10 min, then centrifuged for 5 min at 14,000 rpm. The supernatants were pipetted into gas-tight vials and incubated at 80°C for 21 min to achieve a core temperature of 80°C for 10 min, then cooled to 4°C in a water-ice bath. Finally, samples were filtered using a cellulose sterile filter (S&S Spartan 13/30) into standard HPLC vials for liquid chromatography–mass spectrometry analysis. For liquid chromatography on a C18 column, a water/methanol gradient (containing 10 mmol ammonium acetate and 0.1 mL/L formic acid) was used. Quantification of emodepside was performed by tandem mass spectrometry on an API 5500 instrument (AB Sciex, Darmstadt, Germany) using the transition of m/z = 1,120 ([M + H]^+) to its product ion m/z = 343.

The test system of data set [3] is Onchocerca ochengi microfilariae. The data set is described as follows: Dermal microfilarial density in naturally infected cattle. It counts as in vivo. To be noted: MRSM, 4 mg/kg every other day for 3 days. The protocol: By group, the geometric mean Mf load per 100 mg skin ranged from 100 to 500 (Table 1); two animals found to be negative for skin Mf were distributed in different groups. Eighteen preselected nodules per animal were marked with tattoo ink, and their positions were recorded on a hardcopy ‘hide map’ and by digital video [57]. All assessments of drug efficacy were conducted by individuals blinded to the treatment groups. The study was conducted unmasked. All study personnel provided a signed declaration to conduct the study according to the specified protocol. Verum or vehicle was administered as described in the dose confirmation study.
Worms from a second unfixed nodule (at the same timepoints listed above) were subjected to a 3-(4,5-dimethylthiazol-2-yl)-2,5-diphenyltetrazolium bromide (MTT) assay for metabolic activity, in which the insoluble formazan product was dissolved in DMSO and quantified colorimetrically at 620 nm in a microplate reader (model LT4500, Labtech, Heathfield, East Sussex, UK). Finally, dermal microfilarial densities were determined by incubation of skin biopsies (in triplicate per animal per timepoint) and normalized to 100 mg skin [59].

The test system is the same in data set [4]. The data set is described as follows: Dermal microfilarial load (area under the density-time curve). It counts as in vivo. To be noted: MRSM, 4 mg/kg every other day for 3 days; vs placebo. An excerpt: Here, the null hypothesis, H0, is that the parameter m is not different to 0. If H0 can be rejected, a concentration-dependent effect of emodepside can be assumed. The alpha level selected for statistical significance was 5%. We considered three PD endpoints, a) uterine contents (with oocytes, developing embryonic stages, normal intrauterine Mf and degenerate intrauterine Mf considered separately), b) skin Mf load, and c) male and female motility (separately). Mf load is defined as the area under the curve of observed counts over time according to Eq 4: Mfload=∑i=2nMfdensityi+Mfdensityi−1/2*ti−ti−1 (4) per individual treated animal. To increase the robustness of the analysis, only animals presenting a skin Mf load of ≥100/100 mg skin at day -1 were included.
The same principle was applied to the analysis of the uterine contents. In order to test a dose-dependent effect, and an effect over placebo, the log load of uterine contents or Mf was used as the PD endpoint E in Eq 3, and exposure C was the sum of doses. Over all doses and individual animals, an effect size (m) and corresponding statistics were calculated using R’s lm function.

Setting [5] is: 1 mg/kg IV perfusion, one animal.

In the case of `CC(C)C[C@H]1C(=O)O[C@H](Cc2ccc(N3CCOCC3)cc2)C(=O)N(C)[C@@H](CC(C)C)C(=O)O[C@H](C)C(=O)N(C)[C@@H](CC(C)C)C(=O)O[C@H](Cc2ccc(N3CCOCC3)cc2)C(=O)N(C)[C@@H](CC(C)C)C(=O)O[C@H](C)C(=O)N1C` [emodepside], the “Heart rate by the end of the perfusion” value in data set [1] (setting [5]) is given as “approximately 108 bpm”. Moreover, in data set [1] (setting [5]), the “Heart rate, peak during the application” value is given as 140 bpm. Further, the “Blood glucose, peak” value in data set [1] (1 mg/kg IV, 3–8 h post-application, xylazine at 6–8 h may have contributed) is recorded as ~ 12 mmol/L. This compound also returned a Blood glucose in data set [1] (1 mg/kg IV, after 24 h (normal)) of 4.33 mmol/L. Also, the Adverse effects entry is “Salivation and slight muscle tremors” in data set [1] (1 mg/kg IV, for approximately 1 h after application, then full recovery); “severe generalised muscle tremor, salivation and tachycardia” in data set [1] (2.17 mg/kg IV perfusion, one animal, treatment discontinued). Moreover, in data set [2] (54 occasions, same study day, all emodepside groups), the “Median ratio between skin and plasma concentration” value is 1.1. Further, the “tmax observed in skin” value is reported as 24 h in data set [2] (EMO1L, 0.15 mg/kg IV single dose, animals in order B0696, B0698, B0700, B0730, B0731, B0762) and 24 h in data set [2] (EMO7H, 0.75 mg/kg IV daily for 7 days, animals in order B0404, B0434, B0694, B0695, B0734, B0750, B0765).
Turning to `NCCS[As](SCCN)c1ccc(Nc2nc(N)nc(N)n2)cc1` [melarsomine], the “Mf density over time” value in data set [3] was “complete clearance after one year”. Further, in data set [4], the “Median reduction in Mf load” value was 96%.
